Source: patent publication US8466290B2, “STAT3 inhibitor containing quinolinecarboxamide derivative as active ingredient” (Pharma IP General Incorporated Association, priority 2008, dated 2013)

Experiments:
STAT3 = STAT3 transcription inhibition test (reporter gene method, oncostatin M stimulation); format: cell-based; conditions: Homo sapiens; compound at 100 μM; STAT3 reporter HeLa stable cell line; oncostatin M 10 ng/mL, 4 hours; read-out: STAT3 transcription inhibitory activity (%)
Procedure: The inhibition of STAT3 transcription was evaluated by using STAT3 reporter HeLa stable cell line (Panomics Inc., catalog No. RC0003), a cell line for the reporter gene method, and performing the following method according to the appendix included therein.
STAT3 reporter HeLa stable cell line subcultured and maintained in a Dulbecco's modified Eagle's medium (DMEM) containing 10% fetal bovine serum, 100 units/mL penicillin, and 100 μg/mL streptomycin was inoculated at a concentration of 40000 cells/well to a 96-well plate (white) and attached to the plate by overnight incubation at 37° C. under 5% CO2. After addition of each evaluation compound adjusted to various concentrations (adjusted with a DMSO solution), the cells were precultured for 1 hour. Then, oncostatin M for activating STAT3 was added at a final concentration 10 ng/mL, and the cells were further cultured at 37° C. under 5% CO2 for 4 hours. Luciferase activity derived from the cells was determined using Steady-Glo Luciferase Assay System (Promega Corp.), and STAT3 transcriptional activity scores were calculated according to the following formula: STAT3 transcriptional activity score (%)=100×(Lchem−L0)/(LDMSO−L0) Lo: luminescence intensity obtained without stimulation with oncostatin M Lchem: luminescence intensity obtained by the addition of a test sample LDMSO: luminescence intensity obtained by the addition of only a solvent for dissolving a test sample

MDA-MB-435S = MDA-MB-435S cell growth inhibitory activity; format: cell-based; conditions: Homo sapiens, compound at 20 μM, 72 hours, read-out: Cell growth inhibitory activity (%)
Procedure: […] Each well was washed three times with a medium. Then, after addition of 100 μL/well of a medium and 20 μL/well of CellTiter 96 AQueous One Solution Reagent (Promega Corp.), the cells were incubated at 37° C. for 2 hours in the presence of 5% CO2.

| Compound | inhibition at 100 µM (STAT3) [%] | inhibition at 20 µM (MDA-MB-435S) [%] |
| --- | --- | --- |
| Cc1ccc(-c2cc(C(=O)Nc3nnc(-c4ccco4)o3)c3cccc(C)c3n2)cc1 [Ia-27, N-[5-(2-furyl)-1,3,4-oxadiazol-2-yl]-8-methyl-2-(4-tolyl)-4-quinolinecarboxamide] | 71 | 99 |
| O=C(Nc1nnc(-c2ccco2)o1)c1cc(-c2ccccc2)nc2ccc(-c3cccnc3)cc12 [Ia-100, N-[5-(2-furyl)-1,3,4-oxadiazol-2-yl]-6-(3-pyridyl)-2-phenyl-4-quinolinecarboxamide] | 92 | 76 |
| COc1ccc2nc(-c3ccccc3)cc(C(=O)Nc3nnc(-c4ccco4)o3)c2c1 [Ia-23, N-[5-(2-furyl)-1,3,4-oxadiazol-2-yl]-6-methoxy-2-phenyl-4-quinolinecarboxamide] | 100 | 50 |
| O=C(Nc1nnc(-c2ccccc2)o1)c1cc(-c2ccccc2)nc2ccc(Cl)cc12 [Ia-110, 6-chloro-2-phenyl-N-(5-phenyl-1,3,4-oxadiazol-2-yl)-4-quinolinecarboxamide] | 89 | 65 |
| O=C(Nc1nnc(-c2ccco2)o1)c1cc(-c2ccc(F)cc2)nc2ccccc12 [Ia-46, 2-(4-fluorophenyl)-N-[5-(2-furyl)-1,3,4-oxadiazol-2-yl]-4-quinolinecarboxamide] | 80 | 54 |
| COc1ccccc1-c1nnc(NC(=O)c2cc(-c3ccccc3)nc3ccccc23)o1 [Ia-c, N-[5-(2-methoxyphenyl)-1,3,4-oxadiazol-2-yl]-2-phenyl-4-quinolinecarboxamide] | 67 | 97 |
| O=C(Nc1nnc(Br)s1)c1cc(-c2ccccc2)nc2ccccc12 [Ib-2, N-(5-bromo-1,3,4-thiadiazol-2-yl)-2-phenyl-4-quinolinecarboxamide] | > 100 | 79 |
| O=C(Nc1nnc(-c2ccccc2)o1)c1cc(-c2ccccc2)nc2ccccc12 [Ia-3, 2-phenyl-N-(5-phenyl-1,3,4-oxadiazol-2-yl)-4-quinolinecarboxamide] | > 100 | 53 |
| Cc1ccc(-c2cc(C(=O)Nc3nnc(-c4ccco4)o3)c3ccccc3n2)o1 [Ia-64, N-[5-(2-furyl)-1,3,4-oxadiazol-2-yl]-2-(5-methyl-2-furyl)-4-quinolinecarboxamide] | > 100 | 57 |
| O=C(Nc1nnc(-c2ccccc2Cl)o1)c1cc(-c2ccccc2)nc2ccc(Cl)cc12 [Ia-112, 6-chloro-N-[5-(2-chlorophenyl)-1,3,4-oxadiazol-2-yl]-2-phenyl-4-quinolinecarboxamide] | > 100 | 69 |
| O=C(Nc1nnc(-c2ccco2)o1)c1cc(-c2ccccc2O)nc2ccccc12 [Ia-38, N-[5-(2-furyl)-1,3,4-oxadiazol-2-yl]-2-(2-hydroxyphenyl)-4-quinolinecarboxamide] | > 100 | 50 |
| COc1ccc(-c2cc(C(=O)Nc3nnc(-c4ccco4)o3)c3ccccc3n2)cc1 [Ia-51, N-[5-(2-furyl)-1,3,4-oxadiazol-2-yl]-2-(4-methoxyphenyl)-4-quinolinecarboxamide] | > 100 | 56 |
| O=C(Nc1nnc(-c2ccncc2)s1)c1cc(-c2ccccc2)nc2ccc(OC(F)(F)F)cc12 [Ib-8, 2-phenyl-N-[5-(4-pyridyl)-1,3,4-thiadiazol-2-yl]-6-trifluoromethoxy-4-quinolinecarboxamide] | 65 | 80 |
| O=C(Nc1nnc(-c2ccco2)o1)c1cc(-c2ccccc2)nc2ccc(-c3ccsc3)cc12 [Ia-99, N-[5-(2-furyl)-1,3,4-oxadiazol-2-yl]-6-(3-thienyl)-2-phenyl-4-quinolinecarboxamide] | 73 | 93 |
| O=C(Nc1nnc(-c2cccs2)o1)c1cc(-c2ccccc2)nc2ccccc12 [Ia-a, 2-phenyl-N-[5-(2-thienyl)-1,3,4-oxadiazol-2-yl]-4-quinolinecarboxamide] | 86 | 89 |
| CC(C)Oc1cccc(-c2cc(C(=O)Nc3nnc(-c4ccncc4)s3)c3ccccc3n2)c1 [Ib-b, 2-(3-isopropoxyphenyl)-N-[5-(4-pyridyl)-1,3,4-thiadiazol-2-yl]-4-quinolinecarboxamide] | > 100 | 97 |
| O=C(Nc1nnc(-c2ccco2)o1)c1cc(-c2ccccc2)nc2ccc(Br)cc12 [Ia-68, 6-bromo-N-[5-(2-furyl)-1,3,4-oxadiazol-2-yl]-2-phenyl-4-quinolinecarboxamide] | > 100 | 63 |
| COc1ccc(-c2nnc(NC(=O)c3cc(-c4ccccc4)nc4ccc(OC(F)(F)F)cc34)o2)cc1 [Ia-117, N-[5-(4-methoxyphenyl)-1,3,4-oxadiazol-2-yl]-2-phenyl-6-trifluoromethoxy-4-quinolinecarboxamide] | 87 | 85 |
| COc1cccc(-c2cc(C(=O)Nc3nnc(-c4ccco4)o3)c3ccccc3n2)c1 [Ia-42, N-[5-(2-furyl)-1,3,4-oxadiazol-2-yl]-2-(3-methoxyphenyl)-4-quinolinecarboxamide] | 92 | 92 |
| O=C(Nc1nnc(-c2ccco2)o1)c1cc(-c2ccccc2)nc2ccc(-c3ccncc3)cc12 [Ia-76, N-[5-(2-furyl)-1,3,4-oxadiazol-2-yl]-2-phenyl-6-(4-pyridyl)-4-quinolinecarboxamide] | > 100 | 84 |
| Cc1ccc(-c2cc(C(=O)Nc3nnc(-c4ccco4)o3)c3ccccc3n2)cc1 [Ia-48, N-[5-(2-furyl)-1,3,4-oxadiazol-2-yl]-2-(4-methylphenyl)-4-quinolinecarboxamide] | 92 | 69 |
| O=C(Nc1nnc(-c2ccco2)o1)c1cc(-c2ccccc2)nc2ccc(-c3ccccc3)cc12 [Ia-75, N-[5-(2-furyl)-1,3,4-oxadiazol-2-yl]-2,6-diphenyl-4-quinolinecarboxamide] | > 100 | 64 |
| O=C(Nc1nnc(-c2ccco2)o1)c1cc(-c2cccs2)nc2ccc(Cl)cc12 [Ia-30, 6-chloro-N-[5-(2-furyl)-1,3,4-oxadiazol-2-yl]-2-(2-thienyl)-4-quinolinecarboxamide] | 62 | > 100 |
| O=C(Nc1nnc(-c2ccco2)o1)c1cc(-c2cccc(Cl)c2)nc2ccccc12 [Ia-41, 2-(3-chlorophenyl)-N-[5-(2-furyl)-1,3,4-oxadiazol-2-yl]-4-quinolinecarboxamide] | > 100 | 55 |
| O=C(Nc1nnc(-c2ccco2)o1)c1cc(-c2ccc(OC(F)F)cc2)nc2ccccc12 [Ia-49, 2-(4-difluoromethoxyphenyl)-N-[5-(2-furyl)-1,3,4-oxadiazol-2-yl]-4-quinolinecarboxamide] | > 100 | 51 |
| O=C(Nc1nnc(-c2ccccc2Cl)o1)c1cc(-c2ccccc2)nc2ccc(OC(F)(F)F)cc12 [Ia-113, N-[5-(2-chlorophenyl)-1,3,4-oxadiazol-2-yl]-2-phenyl-6-trifluoromethoxy-4-quinolinecarboxamide] | > 100 | 76 |
